Data reported in patent publication US11673866B2, “Estrogen receptor beta ligands for the prevention and treatment of multiple sclerosis (MS) and other demyelinating, inflammatory and neurodegenerative diseases” (The Board of Trustees of the University of Illinois, priority 2018, dated 2023).

Columns and labels:
ERα = target: T1, ERα (Homo sapiens, UniProt P03372); assay: Relative binding affinity (RBA) to estrogen receptor alpha, radiometric measurement; conditions: relative value to 100% for E2 by radiometric measurement
T1 sequence (P03372 1-595): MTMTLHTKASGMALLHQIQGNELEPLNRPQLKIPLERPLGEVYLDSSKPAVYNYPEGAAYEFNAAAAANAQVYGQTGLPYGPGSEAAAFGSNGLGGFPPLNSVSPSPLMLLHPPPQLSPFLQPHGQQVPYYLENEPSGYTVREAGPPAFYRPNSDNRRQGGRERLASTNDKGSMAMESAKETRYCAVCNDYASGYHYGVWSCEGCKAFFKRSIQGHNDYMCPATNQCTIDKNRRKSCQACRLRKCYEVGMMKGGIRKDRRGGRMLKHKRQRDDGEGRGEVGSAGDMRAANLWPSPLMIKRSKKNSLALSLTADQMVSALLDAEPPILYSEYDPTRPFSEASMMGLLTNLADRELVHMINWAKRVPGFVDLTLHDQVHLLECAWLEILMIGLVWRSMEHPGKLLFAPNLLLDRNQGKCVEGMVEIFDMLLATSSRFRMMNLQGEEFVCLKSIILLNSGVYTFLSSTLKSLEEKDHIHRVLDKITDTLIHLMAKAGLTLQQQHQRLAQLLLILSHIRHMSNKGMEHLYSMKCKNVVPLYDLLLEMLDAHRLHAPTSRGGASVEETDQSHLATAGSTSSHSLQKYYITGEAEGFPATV

ERβ = ERβ (Homo sapiens, UniProt Q92731); assay: Relative binding affinity (RBA) to estrogen receptor beta, radiometric measurement; conditions: for β/α Ratio: ratio of RBA ERβ to RBA ERα; for RBA ERβ: relative value to 100% for E2 by radiometric measurement
Chain of ERβ (Q92731 whole entry, species assumed): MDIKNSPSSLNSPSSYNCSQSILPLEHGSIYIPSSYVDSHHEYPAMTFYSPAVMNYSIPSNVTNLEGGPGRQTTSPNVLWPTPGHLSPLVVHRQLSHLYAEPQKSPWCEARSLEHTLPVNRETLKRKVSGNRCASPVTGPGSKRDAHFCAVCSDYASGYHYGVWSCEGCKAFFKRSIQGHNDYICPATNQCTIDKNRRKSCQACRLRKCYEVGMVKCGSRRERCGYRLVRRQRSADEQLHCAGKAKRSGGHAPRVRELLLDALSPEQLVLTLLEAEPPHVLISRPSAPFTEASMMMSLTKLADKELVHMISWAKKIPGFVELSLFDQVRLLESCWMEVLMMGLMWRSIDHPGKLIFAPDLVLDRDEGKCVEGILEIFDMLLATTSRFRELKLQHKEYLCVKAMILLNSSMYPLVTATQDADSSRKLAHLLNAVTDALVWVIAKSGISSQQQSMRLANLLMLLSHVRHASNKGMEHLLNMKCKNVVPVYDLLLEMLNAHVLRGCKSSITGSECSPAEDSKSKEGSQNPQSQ

[1] = system: primary oligodendrocyte and oligodendrocyte precursor cells (OL/OPCs); assay: Primary OPC culture differentiation (MBP immunostaining, DAPI); type: cell-based, mouse; set-up: key to %MBP+/DAPI: *: The level of production of myelin basic protein (MBP); ---: reduction of MBP; conditions: level of production of myelin basic protein in primary OPC/OL cultures
Protocol: Primary OPC Cultures: Primary OPCs, isolated from postnatal day P1 C57BL/6 male and female mouse cortices as described previously, were treated with 10 nM ligands in differentiating medium for 3 days (Tiwari-Woodruff et al., 2001; Tiwari-Woodruff et al., 2006). Primary OPC were cultured into 8-well chamber slides (three wells per condition, 2.5×10^5 cells/well) for three days to attach and […] in differentiating media (consisting of DMEM-F12 with triiodothyronine- and thyroxine-containing Sato as well as penicillin, streptomycin, insulin, N-acetyl-L-cysteine, forskolin, ciliary neurotrophic factor, neurotrophin-3, and platelet-derived growth factor receptor α (Tiwari-Woodruff et al., 2001)). A positive control (IndCl), a negative control (Vehicle consisting of the media+EtOH mixture used to dissolve IndCl), and a normal control (differentiating media alone) were used for comparison. At the end of the treatment period, cells were fixed, stained by immunocytochemistry (primary antibody polyclonal chicken myelin basic protein (MBP, Millipore AB9348), shown in green and co-stained with nuclear stain—DAPI shown in blue), and imaged with an Olympus BX61 confocal microscope (Olympus America Inc., Center Valley, Pa.) at 10× magnification (3 images per well). Cells were counted using the ImageJ multipoint tool, and counts were then divided by the image area (mm^2). Average cell density for each condition was then divided by the normal condition cell density. Analysis of OL differentiation consisted of counting the number of MBP+ cells and process extensions that were longer than the respective cell-body diameter and tracking the number of highly branched MBP+ cells (with three or more processes) (Monnerie et al., 2017). Statistics were performed using GraphPad Prism 6 Software (La Jolla, Calif.). One-way ANOVA with Tukey's posthoc test for multiple comparisons was used to generate p-values, and data are presented as mean SEM (with α≤0.05).
Primary OPC cultures were used as a convenient cell-based assay to characterize the proliferation and/or differentiation effects of the new IndCl analogues and to select those most suitable for more extensive studies to be done in comparison with the parental ligand, IndCl. 48 hours after plating OPCs, one of seven IndCl analogues (FIG. 1A) was added to differentiating media at a concentration of 10 nM (De Angelis et al., 2005; Saijo et al., 2011). OPCs were allowed to differentiate for 3 days in the presence of IndCl or analogues, at which point they were fixed, immunostained for OPC/OL markers, and quantified. […] The total number of cells in culture was not altered by any treatment (FIGS. 1B and 1D).

SMILES | RBA ERα (ERα) | β/α Ratio (ERβ) | RBA ERβ (ERβ) | %MBP+/DAPI [1]
OCc1c2cc(O)ccc2nn1-c1ccc(O)cc1 [Ind-CH2OH, 3-(hydroxymethyl)-2-(4-hydroxyphenyl)-2H-indazol-5-ol] | 0.04% | 35.8 | 1.43% | 
Oc1ccc(-c2c3cc(O)ccc3nn2-c2ccc(O)cc2)cc1 [Ind-Ph-p-OH, 4,4′-(5-hydroxy-2H-indazole-2,3-diyl)diphenol] | 0.08% | 7.8 | 0.63% | 
Oc1ccc(-n2nc3ccc(O)cc3c2C2SCCS2)cc1 [Ind-Thiolane, 3-(1,3-dithiolan-2-yl)-2-(4-hydroxyphenyl)-2H-indazol-5-ol] | 0.03% | 10.3 | 0.31% | 
C=CCc1c2cc(O)ccc2nn1-c1ccc(O)cc1Br [Ind-allyl-o-Br, 3-allyl-2-(2-bromo-4-hydroxyphenyl)-2H-indazol-5-ol] | 0.34% | 2.5 | 0.86% | 
C=Cc1c2cc(O)ccc2nn1-c1ccc(O)cc1Br [Ind-vinyl-o-Br, 2-(2-bromo-4-hydroxyphenyl)-3-vinyl-2H-indazol-5-ol] | 0.54% | 14.9 | 8.04% | 
Oc1ccc(-n2nc3ccc(O)cc3c2Br)c(Br)c1 [IndBr-o-Br, 3-bromo-2-(2-bromo-4-hydroxyphenyl)-2H-indazol-5-ol] | 1.40% | 4.2 | 5.84% | *
Oc1ccc(-n2nc3ccc(O)cc3c2Br)c(Cl)c1 [IndBr-o-Cl, 3-bromo-2-(2-chloro-4-hydroxyphenyl)-2H-indazol-5-ol] | 0.81% | 19.9 | 16.12% | 
Oc1ccc(-n2nc3ccc(O)cc3c2Br)c(I)c1 [IndBr-o-I, 3-bromo-2-(4-hydroxy-2-iodophenyl)-2H-indazol-5-ol] | 0.49% | 12.8 | 6.28% | 
Oc1ccc2nn(-c3ccc(O)c(F)c3)c(Cl)c2c1 [IndCl-m-F, 3-chloro-2-(3-fluoro-4-hydroxyphenyl)-2H-indazol-5-ol] | 0.14% | 75.7 | 10.5% | 
Cc1cc(-n2nc3ccc(O)cc3c2Cl)ccc1O [IndCl-m-Me, 3-chloro-2-(4-hydroxy-3-methylphenyl)-2H-indazol-5-ol] | 0.13% | 5.8 | 0.74% | 
Oc1ccc(-n2nc3ccc(O)cc3c2Cl)c(Br)c1 [IndCl-o-Br, 2-(2-bromo-4-hydroxyphenyl)-3-chloro-2H-indazol-5-ol] | 0.47% | 17.9 | 8.31% | *
Oc1ccc(-n2nc3ccc(O)cc3c2Cl)c(C(F)(F)F)c1 [IndCl-o-CF3, 3-chloro-2-(4-hydroxy-2-(trifluoromethyl)phenyl)-2H-indazol-5-ol] | 2.84% | 3.7 | 10.39% | 
OCc1cc(O)ccc1-n1nc2ccc(O)cc2c1Cl [IndCl-o-CH2OH, 3-chloro-2-(4-hydroxy-2-(hydroxymethyl)phenyl)-2H-indazol-5-ol] | 0.13% | 18.0 | 2.34% | 
N#Cc1cc(O)ccc1-n1nc2ccc(O)cc2c1Cl [IndCl-o-CN, 2-(3-chloro-5-hydroxy-2H-indazol-2-yl)-5-hydroxybenzonitrile] | 0.05% | 15.7 | 0.77% | ---
Oc1cc(Cl)c(-n2nc3ccc(O)c(Cl)c3c2Cl)c(Cl)c1 [IndCl-o-Cl2-4-Cl, 3,4-dichloro-2-(2,6-dichloro-4-hydroxyphenyl)-2H-indazol-5-ol] | 0.11% | 21.1 | 2.3% | 
Oc1ccc(-n2nc3ccc(O)cc3c2Cl)c(F)c1 [IndCl-o-F, 3-chloro-2-(2-fluoro-4-hydroxyphenyl)-2H-indazol-5-ol] | 0.19% | 52.4 | 9.79% | 
Oc1ccc(-n2nc3ccc(O)cc3c2Cl)c(C2SCCS2)c1 [IndCl-o-Thiolane, 2-(2-(1,3-dithiolan-2-yl)-4-hydroxyphenyl)-3-chloro-2H-indazol-5-ol] | 0.18% | 13.0 | 2.34% | 
Oc1ccc(-n2nc3ccc(O)cc3c2F)c(Cl)c1 [IndF-o-Cl, 2-(2-chloro-4-hydroxyphenyl)-3-fluoro-2H-indazol-5-ol] | 0.27% | 4.0 | 1.09% | 
Oc1ccc(-n2nc3ccc(O)cc3c2F)c(I)c1 [IndF-o-I, 3-fluoro-2-(4-hydroxy-2-iodophenyl)-2H-indazol-5-ol] | 0.27% | 2.3 | 0.61% | 
Oc1cc(Cl)c(-n2cc3cc(O)ccc3n2)c(Cl)c1 [IndH-o-Cl2, 2-(2,6-dichloro-4-hydroxyphenyl)-2H-indazol-5-ol] | 0.088% | 9.3 | 0.82% | 
Oc1cc(F)c(-n2cc3cc(O)ccc3n2)c(F)c1 [IndH-o-F2, 2-(2,6-difluoro-4-hydroxyphenyl)-2H-indazol-5-ol] | 0.03% | 2.0 | 0.06% | 
Oc1ccc(-n2nc3ccc(O)cc3c2I)c(Br)c1 [IndI-o-Br, 2-(2-bromo-4-hydroxyphenyl)-3-iodo-2H-indazol-5-ol] | 1.25% | 5.3 | 6.64% | 
Oc1ccc(-n2nc3ccc(O)cc3c2I)c(Cl)c1 [IndI-o-Cl, 2-(2-chloro-4-hydroxyphenyl)-3-iodo-2H-indazol-5-ol] | 0.47% | 10.5 | 4.93% | 
Oc1ccc(-n2nc3ccc(O)cc3c2I)c(I)c1 [IndI-o-I, 2-(4-hydroxy-2-iodophenyl)-3-iodo-2H-indazol-5-ol] | 0.37% | 6.7 | 2.5% | 
Cc1cc(O)ccc1-n1nc2ccc(O)cc2c1I [IndI-o-Me, 2-(4-hydroxy-2-methylphenyl)-3-iodo-2H-indazol-5-ol] | 1.38% | 7.0 | 9.64% | 
